Laboratory results: PMC7385619, “A triple action CDK4/6-PI3K-BET inhibitor with augmented cancer cell cytotoxicity” (Cell Discovery, 2020)

Legend:
Experiment in all cases: KINOMEscan assay (Eurofins DiscoverX)
Type in all cases: binding
kinome (kinase panel) [1] = biological target: T1, kinome (kinase panel) (Homo sapiens, UniProt O14936); conditions: CASK; 1000 nM; read-out: Percent Control
T1 construct: purchased Eurofins DiscoverX

kinome (kinase panel) [2] = biological target: T2, kinome (kinase panel) (Homo sapiens, UniProt O43293); conditions: DAPK3; 1000 nM; read-out: Percent Control
T2 construct: purchased Eurofins DiscoverX

kinome (kinase panel) [3] = biological target: T3, kinome (kinase panel) (Homo sapiens, UniProt O95819); conditions: MAP4K4; 1000 nM; read-out: Percent Control
T3 construct: purchased Eurofins DiscoverX

kinome (kinase panel) [4] = biological target: T4, kinome (kinase panel) (Homo sapiens, UniProt P00519, M351T); conditions: read-out: Percent Control
T4 construct: purchased Eurofins DiscoverX

kinome (kinase panel) [5] = biological target: T5, kinome (kinase panel) (Homo sapiens, UniProt P07947); conditions: YES (YES1); 1000 nM; read-out: Percent Control
T5 construct: purchased Eurofins DiscoverX
T5 sequence (P07947 whole entry): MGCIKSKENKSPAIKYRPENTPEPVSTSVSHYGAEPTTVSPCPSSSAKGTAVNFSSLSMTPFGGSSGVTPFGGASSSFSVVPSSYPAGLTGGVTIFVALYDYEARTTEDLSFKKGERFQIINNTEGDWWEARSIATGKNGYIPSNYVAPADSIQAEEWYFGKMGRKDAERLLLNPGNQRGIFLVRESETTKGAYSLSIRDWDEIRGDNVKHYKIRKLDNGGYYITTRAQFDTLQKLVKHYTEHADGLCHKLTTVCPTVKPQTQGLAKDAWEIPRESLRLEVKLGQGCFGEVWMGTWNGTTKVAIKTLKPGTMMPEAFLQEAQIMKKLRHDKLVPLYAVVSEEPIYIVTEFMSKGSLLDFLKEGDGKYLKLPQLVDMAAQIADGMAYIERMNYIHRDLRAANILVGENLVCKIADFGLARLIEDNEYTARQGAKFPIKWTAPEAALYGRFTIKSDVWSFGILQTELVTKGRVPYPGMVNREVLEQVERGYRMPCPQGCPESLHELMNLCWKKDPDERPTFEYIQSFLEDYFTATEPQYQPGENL

kinome (kinase panel) [6] = biological target: T6, kinome (kinase panel) (Homo sapiens, UniProt P08631); conditions: HCK; 1000 nM; read-out: Percent Control
T6 construct: purchased Eurofins DiscoverX

kinome (kinase panel) [7] = biological target: T7, kinome (kinase panel) (Homo sapiens, UniProt P0C1S8); conditions: WEE2; 1000 nM; read-out: Percent Control
T7 construct: purchased Eurofins DiscoverX

kinome (kinase panel) [8] = biological target: T8, kinome (kinase panel) (Homo sapiens, UniProt P11309); conditions: PIM1; 1000 nM; read-out: Percent Control
T8 construct: purchased Eurofins DiscoverX

kinome (kinase panel) [9] = biological target: T9, kinome (kinase panel) (Homo sapiens, UniProt P21860); conditions: ERBB3; 1000 nM; read-out: Percent Control
T9 construct: purchased Eurofins DiscoverX
T9 sequence (P21860 20-1342): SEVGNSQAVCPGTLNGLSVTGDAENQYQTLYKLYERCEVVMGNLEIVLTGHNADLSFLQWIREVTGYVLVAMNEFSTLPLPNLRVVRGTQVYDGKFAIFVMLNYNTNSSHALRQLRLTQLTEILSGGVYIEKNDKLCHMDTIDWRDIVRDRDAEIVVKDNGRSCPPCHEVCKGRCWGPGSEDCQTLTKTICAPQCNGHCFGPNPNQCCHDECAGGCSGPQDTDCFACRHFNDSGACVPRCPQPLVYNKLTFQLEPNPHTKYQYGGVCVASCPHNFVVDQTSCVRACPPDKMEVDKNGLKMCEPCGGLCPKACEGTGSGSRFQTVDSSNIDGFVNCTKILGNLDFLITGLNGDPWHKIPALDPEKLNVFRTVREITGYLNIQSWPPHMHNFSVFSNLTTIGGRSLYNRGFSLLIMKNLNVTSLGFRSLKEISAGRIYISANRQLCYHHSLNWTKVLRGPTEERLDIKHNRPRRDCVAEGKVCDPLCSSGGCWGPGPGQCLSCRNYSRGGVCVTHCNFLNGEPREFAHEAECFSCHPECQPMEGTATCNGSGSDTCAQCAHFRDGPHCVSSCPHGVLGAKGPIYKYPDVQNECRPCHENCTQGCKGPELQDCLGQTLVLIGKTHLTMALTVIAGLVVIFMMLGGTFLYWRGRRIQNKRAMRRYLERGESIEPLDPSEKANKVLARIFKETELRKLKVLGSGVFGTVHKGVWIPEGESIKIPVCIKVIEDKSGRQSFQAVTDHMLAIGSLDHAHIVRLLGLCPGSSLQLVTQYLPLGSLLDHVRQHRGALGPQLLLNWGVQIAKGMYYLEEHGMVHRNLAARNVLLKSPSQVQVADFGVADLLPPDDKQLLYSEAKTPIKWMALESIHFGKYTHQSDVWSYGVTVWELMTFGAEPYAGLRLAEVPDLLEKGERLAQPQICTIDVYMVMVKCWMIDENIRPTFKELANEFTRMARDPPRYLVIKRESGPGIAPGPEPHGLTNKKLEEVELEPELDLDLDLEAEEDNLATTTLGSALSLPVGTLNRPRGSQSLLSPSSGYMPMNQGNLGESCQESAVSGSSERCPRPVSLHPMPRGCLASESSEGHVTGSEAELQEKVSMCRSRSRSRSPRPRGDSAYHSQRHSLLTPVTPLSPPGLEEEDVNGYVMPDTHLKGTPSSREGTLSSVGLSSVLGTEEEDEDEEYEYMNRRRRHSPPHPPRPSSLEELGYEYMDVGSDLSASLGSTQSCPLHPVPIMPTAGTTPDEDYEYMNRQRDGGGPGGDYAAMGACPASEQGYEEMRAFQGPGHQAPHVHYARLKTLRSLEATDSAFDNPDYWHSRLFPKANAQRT

kinome (kinase panel) [10] = biological target: T10, kinome (kinase panel) (Homo sapiens, UniProt P49137); conditions: MAPKAPK2; 1000 nM; read-out: Percent Control
T10 construct: purchased Eurofins DiscoverX
T10 sequence (P49137 whole entry): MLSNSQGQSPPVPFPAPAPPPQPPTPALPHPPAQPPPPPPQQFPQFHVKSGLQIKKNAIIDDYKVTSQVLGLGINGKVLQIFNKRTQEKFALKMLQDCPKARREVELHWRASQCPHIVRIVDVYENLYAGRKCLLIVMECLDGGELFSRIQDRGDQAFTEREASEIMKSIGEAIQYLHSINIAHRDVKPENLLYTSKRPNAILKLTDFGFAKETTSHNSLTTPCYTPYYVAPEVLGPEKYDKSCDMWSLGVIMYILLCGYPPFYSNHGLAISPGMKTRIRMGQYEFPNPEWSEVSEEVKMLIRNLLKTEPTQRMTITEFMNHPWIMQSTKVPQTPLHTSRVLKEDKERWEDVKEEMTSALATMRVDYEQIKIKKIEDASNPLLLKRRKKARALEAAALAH

kinome (kinase panel) [11] = biological target: T11, kinome (kinase panel) (Homo sapiens, UniProt P49759); conditions: CLK1; 1000 nM; read-out: Percent Control
T11 construct: purchased Eurofins DiscoverX

kinome (kinase panel) [12] = biological target: T12, kinome (kinase panel) (Homo sapiens, UniProt P49840); conditions: GSK3A; 1000 nM; read-out: Percent Control
T12 construct: purchased Eurofins DiscoverX

kinome (kinase panel) [13] = biological target: T13, kinome (kinase panel) (Homo sapiens, UniProt P78368); conditions: CSNK1G2; 1000 nM; read-out: Percent Control
T13 construct: purchased Eurofins DiscoverX
T13 sequence (P78368 whole entry): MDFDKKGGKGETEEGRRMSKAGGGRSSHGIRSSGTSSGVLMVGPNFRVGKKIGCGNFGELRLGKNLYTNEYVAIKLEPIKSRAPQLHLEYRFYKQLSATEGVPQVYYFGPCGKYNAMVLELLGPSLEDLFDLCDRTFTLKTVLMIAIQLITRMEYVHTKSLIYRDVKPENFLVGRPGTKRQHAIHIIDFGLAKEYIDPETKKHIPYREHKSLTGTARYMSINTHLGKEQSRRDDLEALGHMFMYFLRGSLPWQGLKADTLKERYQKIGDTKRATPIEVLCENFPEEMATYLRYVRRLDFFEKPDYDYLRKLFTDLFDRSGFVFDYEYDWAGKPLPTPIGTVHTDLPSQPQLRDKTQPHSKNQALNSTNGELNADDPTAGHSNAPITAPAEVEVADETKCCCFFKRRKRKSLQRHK

kinome (kinase panel) [14] = biological target: T14, kinome (kinase panel) (Homo sapiens, UniProt Q00537); conditions: PCTK2 (Entrez CDK17); 1000 nM; read-out: Percent Control
T14 construct: purchased Eurofins DiscoverX

kinome (kinase panel) [15] = biological target: T15, kinome (kinase panel) (Homo sapiens, UniProt Q05655); conditions: PRKCD; 1000 nM; read-out: Percent Control
T15 construct: purchased Eurofins DiscoverX

kinome (kinase panel) [16] = biological target: T16, kinome (kinase panel) (Homo sapiens, UniProt Q12851); conditions: MAP4K2; 1000 nM; read-out: Percent Control
T16 construct: purchased Eurofins DiscoverX

kinome (kinase panel) [17] = biological target: T17, kinome (kinase panel) (Homo sapiens, UniProt Q13043); conditions: MST1 (Entrez STK4); 1000 nM; read-out: Percent Control
T17 construct: purchased Eurofins DiscoverX

kinome (kinase panel) [18] = biological target: T18, kinome (kinase panel) (Homo sapiens, UniProt Q13177); conditions: PAK2; 1000 nM; read-out: Percent Control
T18 construct: purchased Eurofins DiscoverX
T18 sequence (Q13177 whole entry): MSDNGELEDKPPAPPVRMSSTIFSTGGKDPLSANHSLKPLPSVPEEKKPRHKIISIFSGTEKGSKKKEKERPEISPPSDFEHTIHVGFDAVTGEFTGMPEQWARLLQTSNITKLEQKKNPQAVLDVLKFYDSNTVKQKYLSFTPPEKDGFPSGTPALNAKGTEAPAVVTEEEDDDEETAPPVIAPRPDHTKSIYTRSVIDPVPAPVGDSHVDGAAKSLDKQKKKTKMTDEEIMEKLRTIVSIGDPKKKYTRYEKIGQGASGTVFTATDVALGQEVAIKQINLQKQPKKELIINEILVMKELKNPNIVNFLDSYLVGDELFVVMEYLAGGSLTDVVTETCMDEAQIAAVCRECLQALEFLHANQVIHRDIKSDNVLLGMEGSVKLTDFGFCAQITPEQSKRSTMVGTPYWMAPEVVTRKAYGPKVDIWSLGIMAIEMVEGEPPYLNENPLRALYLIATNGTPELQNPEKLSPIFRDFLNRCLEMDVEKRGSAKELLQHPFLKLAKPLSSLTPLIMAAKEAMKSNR

kinome (kinase panel) [19] = biological target: T19, kinome (kinase panel) (Homo sapiens, UniProt Q13464); conditions: ROCK1; 1000 nM; read-out: Percent Control
T19 construct: purchased Eurofins DiscoverX

kinome (kinase panel) [20] = biological target: T20, kinome (kinase panel) (Homo sapiens, UniProt Q15831); conditions: LKB1 (Entrez STK11); 1000 nM; read-out: Percent Control
T20 construct: purchased Eurofins DiscoverX

kinome (kinase panel) [21] = biological target: T21, kinome (kinase panel) (Homo sapiens, UniProt Q16584); conditions: MLK3 (Entrez MAP3K11); 1000 nM; read-out: Percent Control
T21 construct: purchased Eurofins DiscoverX

kinome (kinase panel) [22] = biological target: T22, kinome (kinase panel) (Homo sapiens, UniProt Q5VT25); conditions: MRCKA (Entrez CDC42BPA); 1000 nM; read-out: Percent Control
T22 construct: purchased Eurofins DiscoverX
T22 sequence (Q5VT25 whole entry): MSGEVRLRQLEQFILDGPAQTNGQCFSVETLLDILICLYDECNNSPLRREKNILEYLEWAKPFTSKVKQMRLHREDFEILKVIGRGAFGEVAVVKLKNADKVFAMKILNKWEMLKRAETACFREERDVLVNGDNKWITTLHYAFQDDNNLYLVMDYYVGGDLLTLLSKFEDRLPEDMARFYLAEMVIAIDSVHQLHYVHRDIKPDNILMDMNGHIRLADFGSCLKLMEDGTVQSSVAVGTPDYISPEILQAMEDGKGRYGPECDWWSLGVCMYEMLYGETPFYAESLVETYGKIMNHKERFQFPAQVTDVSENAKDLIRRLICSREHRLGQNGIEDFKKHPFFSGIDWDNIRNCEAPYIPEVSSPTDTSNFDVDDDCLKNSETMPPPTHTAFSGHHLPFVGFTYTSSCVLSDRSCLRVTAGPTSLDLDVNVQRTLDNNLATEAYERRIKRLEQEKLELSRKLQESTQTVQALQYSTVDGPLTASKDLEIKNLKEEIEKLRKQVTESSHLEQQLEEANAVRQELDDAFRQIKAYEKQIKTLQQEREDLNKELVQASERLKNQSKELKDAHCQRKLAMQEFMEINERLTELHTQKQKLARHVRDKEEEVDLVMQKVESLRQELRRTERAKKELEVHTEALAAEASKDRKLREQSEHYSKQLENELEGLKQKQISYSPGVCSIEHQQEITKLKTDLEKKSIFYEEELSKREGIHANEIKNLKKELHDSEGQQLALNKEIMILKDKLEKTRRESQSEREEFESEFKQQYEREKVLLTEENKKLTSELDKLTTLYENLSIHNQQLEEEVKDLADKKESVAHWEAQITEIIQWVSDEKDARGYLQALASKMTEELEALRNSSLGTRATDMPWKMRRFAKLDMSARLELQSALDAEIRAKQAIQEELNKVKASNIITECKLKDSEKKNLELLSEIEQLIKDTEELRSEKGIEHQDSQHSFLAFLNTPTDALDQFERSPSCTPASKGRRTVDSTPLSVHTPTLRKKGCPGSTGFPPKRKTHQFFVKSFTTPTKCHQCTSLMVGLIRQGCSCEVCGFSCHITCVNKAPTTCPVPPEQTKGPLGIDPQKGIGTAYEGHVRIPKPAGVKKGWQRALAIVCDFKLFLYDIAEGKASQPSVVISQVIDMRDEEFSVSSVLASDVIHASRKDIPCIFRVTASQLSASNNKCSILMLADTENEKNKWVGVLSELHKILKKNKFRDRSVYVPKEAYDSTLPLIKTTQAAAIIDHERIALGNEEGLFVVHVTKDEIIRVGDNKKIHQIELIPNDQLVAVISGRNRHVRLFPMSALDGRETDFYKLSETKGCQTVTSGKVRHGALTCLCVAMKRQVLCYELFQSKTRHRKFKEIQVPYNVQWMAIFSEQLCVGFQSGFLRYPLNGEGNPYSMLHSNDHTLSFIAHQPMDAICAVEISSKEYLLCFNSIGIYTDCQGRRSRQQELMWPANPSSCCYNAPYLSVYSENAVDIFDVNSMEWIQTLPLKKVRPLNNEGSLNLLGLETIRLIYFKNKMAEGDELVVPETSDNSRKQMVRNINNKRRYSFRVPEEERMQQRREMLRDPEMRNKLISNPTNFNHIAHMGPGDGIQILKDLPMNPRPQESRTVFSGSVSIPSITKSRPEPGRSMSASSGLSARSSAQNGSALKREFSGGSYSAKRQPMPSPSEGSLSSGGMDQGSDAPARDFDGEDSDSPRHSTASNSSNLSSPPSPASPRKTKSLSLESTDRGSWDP

kinome (kinase panel) [23] = biological target: T23, kinome (kinase panel) (Homo sapiens, UniProt Q7KZI7); conditions: MARK2; 1000 nM; read-out: Percent Control
T23 construct: purchased Eurofins DiscoverX

kinome (kinase panel) [24] = biological target: T24, kinome (kinase panel) (Homo sapiens, UniProt Q86UE8); conditions: TLK2; 1000 nM; read-out: Percent Control
T24 construct: purchased Eurofins DiscoverX

kinome (kinase panel) [25] = biological target: T25, kinome (kinase panel) (Homo sapiens, UniProt Q86Y07); conditions: VRK2; 1000 nM; read-out: Percent Control
T25 construct: purchased Eurofins DiscoverX

kinome (kinase panel) [26] = biological target: T26, kinome (kinase panel) (Homo sapiens, UniProt Q8N568); conditions: DCAMKL2 (Entrez DCLK2); 1000 nM; read-out: Percent Control
T26 construct: purchased Eurofins DiscoverX

kinome (kinase panel) [27] = biological target: T27, kinome (kinase panel) (Homo sapiens, UniProt Q8TDX7); conditions: NEK7; 1000 nM; read-out: Percent Control
T27 construct: purchased Eurofins DiscoverX

kinome (kinase panel) [28] = biological target: T28, kinome (kinase panel) (Homo sapiens, UniProt Q8TF76); conditions: HASPIN (Entrez GSG2); 1000 nM; read-out: Percent Control
T28 construct: purchased Eurofins DiscoverX

kinome (kinase panel) [29] = biological target: T29, kinome (kinase panel) (Homo sapiens, UniProt Q96BR1); conditions: SGK3; 1000 nM; read-out: Percent Control
T29 construct: purchased Eurofins DiscoverX

kinome (kinase panel) [30] = biological target: T30, kinome (kinase panel) (Homo sapiens, UniProt Q9C098); conditions: DCAMKL3 (Entrez DCLK3); 1000 nM; read-out: Percent Control
T30 construct: purchased Eurofins DiscoverX

kinome (kinase panel) [31] = biological target: T31, kinome (kinase panel) (Homo sapiens, UniProt Q9HBH9); conditions: MKNK2; 1000 nM; read-out: Percent Control
T31 construct: purchased Eurofins DiscoverX

kinome (kinase panel) [32] = biological target: T32, kinome (kinase panel) (Homo sapiens, UniProt Q9Y6R4); conditions: MAP3K4; 1000 nM; read-out: Percent Control
T32 construct: purchased Eurofins DiscoverX

CN(C)C(=O)c1cc2cnc(Nc3ccc(-c4csc5c(=O)cc(N6CCOCC6)oc45)cc3)nc2n1C1CCCC1 [SRX3177]
remaining binding at 1 µM (kinome (kinase panel) [1]): 35%
remaining binding at 1 µM (kinome (kinase panel) [2]): 100%
remaining binding at 1 µM (kinome (kinase panel) [3]): 100%
remaining binding at 1 µM (kinome (kinase panel) [4]): 49%
remaining binding at 1 µM (kinome (kinase panel) [5]): 93%
remaining binding at 1 µM (kinome (kinase panel) [6]): 100%
remaining binding at 1 µM (kinome (kinase panel) [7]): 100%
remaining binding at 1 µM (kinome (kinase panel) [8]): 56%
remaining binding at 1 µM (kinome (kinase panel) [9]): 59%
remaining binding at 1 µM (kinome (kinase panel) [10]): 100%
remaining binding at 1 µM (kinome (kinase panel) [11]): 100%
remaining binding at 1 µM (kinome (kinase panel) [12]): 60%
remaining binding at 1 µM (kinome (kinase panel) [13]): 96%
remaining binding at 1 µM (kinome (kinase panel) [14]): 55%
remaining binding at 1 µM (kinome (kinase panel) [15]): 86%
remaining binding at 1 µM (kinome (kinase panel) [16]): 82%
remaining binding at 1 µM (kinome (kinase panel) [17]): 100%
remaining binding at 1 µM (kinome (kinase panel) [18]): 78%
remaining binding at 1 µM (kinome (kinase panel) [19]): 87%
remaining binding at 1 µM (kinome (kinase panel) [20]): 85%
remaining binding at 1 µM (kinome (kinase panel) [21]): 73%
remaining binding at 1 µM (kinome (kinase panel) [22]): 98%
remaining binding at 1 µM (kinome (kinase panel) [23]): 96%
remaining binding at 1 µM (kinome (kinase panel) [24]): 100%
remaining binding at 1 µM (kinome (kinase panel) [25]): 21%
remaining binding at 1 µM (kinome (kinase panel) [26]): 90%
remaining binding at 1 µM (kinome (kinase panel) [27]): 100%
remaining binding at 1 µM (kinome (kinase panel) [28]): 67%
remaining binding at 1 µM (kinome (kinase panel) [29]): 100%
remaining binding at 1 µM (kinome (kinase panel) [30]): 100%
remaining binding at 1 µM (kinome (kinase panel) [31]): 45%
remaining binding at 1 µM (kinome (kinase panel) [32]): 90%
